# Measured values published in US20260248972A1, “DUAL RECEPTOR TARGETING RADIOLIGANDS AND USES THEREOF RELATED APPLICATIONS” (priority 2022, published 2026).
# *1 amine or outer side, *2 acyl side, *3 side chain or, on linkers, in order; H or OH if unused. Where a SMILES comes first, the peptide text is derived from it. Bridges are numbered along the chain shown (N, C = ends). Roman numbers before positions name the chains, in order. Side-chain parts run from the residue outwards. [ ]: non-standard residue; d: D form. The star is where a group is joined. ξ: configuration not given here. X1 = CC(C)(C)C(=O)CN1C(=O)[C@H](N*)CN(C2CCCCC2)c2ccccc21; DOTA = O=C(O)CN1CCN(CC(=O)O)CCN(CC(=O)*)CCN(CC(=O)O)CC1; γGlu = O=C(O)[C@H](CCC(=O)[*:2])N[*:1]; X2 = CC(=O)[C@H](Cc1ccc(O)cc1)N*; X3 = CC(=O)[C@@H](N*)[C@@H](C)O; 3Abz = Nc1cccc(C(=O)O)c1; ξF = NC(Cc1ccccc1)C(=O)O; ξE = NC(CCC(=O)O)C(=O)O; AEEA = NCCOCCOCC(=O)O; CO = O=C([*:1])[*:2]
# Columns and labels:
# CCK2R [1] = molecular target: T1, CCK2R (Homo sapiens, UniProt P32239); assay: Competitive binding (FACS) on CCK2R-transfected HEK 293T cells with Cy5-labeled F11N derivative; conditions: Cy5-labeled F11N derivative competitive ligand (Table 4)
# T1 construct: expressed in transfected cells; host or cells: HEK 293T cells
# T1 sequence (P32239 1-447): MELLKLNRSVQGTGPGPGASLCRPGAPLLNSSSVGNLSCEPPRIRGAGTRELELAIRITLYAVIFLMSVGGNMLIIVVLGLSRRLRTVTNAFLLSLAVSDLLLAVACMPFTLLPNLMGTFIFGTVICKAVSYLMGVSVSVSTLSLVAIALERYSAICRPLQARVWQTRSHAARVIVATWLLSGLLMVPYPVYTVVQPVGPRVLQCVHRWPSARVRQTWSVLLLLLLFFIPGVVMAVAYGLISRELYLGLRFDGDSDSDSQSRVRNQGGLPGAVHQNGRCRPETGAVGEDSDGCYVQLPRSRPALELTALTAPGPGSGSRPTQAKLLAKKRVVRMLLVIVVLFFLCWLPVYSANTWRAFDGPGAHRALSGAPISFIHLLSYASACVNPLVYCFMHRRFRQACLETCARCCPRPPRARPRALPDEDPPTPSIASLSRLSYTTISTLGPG
# SSTR2 [2] = molecular target: T2, SSTR2 (Homo sapiens, UniProt P30874); assay: Competitive binding (FACS) on SSTR2-transfected HEK 293T cells with Cy5-labled DOTA-TATE; conditions: HEK 293T transfected, Cy5-labled DOTA-TATE competitive ligand (Table 4)
# T2 construct: expressed in transfected cells; host or cells: HEK 293T cells
# T2 sequence (P30874 whole entry, species assumed): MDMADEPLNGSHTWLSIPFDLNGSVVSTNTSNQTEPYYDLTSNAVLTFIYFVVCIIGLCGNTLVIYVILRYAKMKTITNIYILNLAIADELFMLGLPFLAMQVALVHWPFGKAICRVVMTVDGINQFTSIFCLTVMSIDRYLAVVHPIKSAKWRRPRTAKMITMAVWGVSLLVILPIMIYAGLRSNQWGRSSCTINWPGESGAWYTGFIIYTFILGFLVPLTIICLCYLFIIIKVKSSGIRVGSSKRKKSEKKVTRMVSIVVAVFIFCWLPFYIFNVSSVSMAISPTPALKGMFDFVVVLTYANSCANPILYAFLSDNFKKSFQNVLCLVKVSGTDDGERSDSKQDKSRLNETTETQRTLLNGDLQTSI
# Procedure: (§1) Binding Affinity Tested by Using Cy5-Labled Competitive Ligands.
# (§2) HEK 293T cells were transfected with SSTR2 or CCK2R-expressing plasmid by Lipofectamine 2000 reagent. 24 hours after transfection, cells were harvested and suspended with assay buffer (1% OVA in DMEM). […] The testing compound was further supplemented into the wells at different concentrations. After incubation for 1 hour at dark, cells were washed and suspended in FACS buffer (1% OVA in DPBS). The fluorescent signal was detected by FACS machine and the binding affinity of the testing compound was evaluated by calculation of IC50 for competitive binding of reference compound.
# CCK2R [3] = molecular target: T1, CCK2R; assay: Competitive binding (FACS) on CCK2R-transfected HEK 293T cells with Cy5-labeled Z360; conditions: HEK 293T transfected, Cy5-labeled Z360 competitive ligand (Table 3)
# Procedure: as §1, §2
# CCK2R [4] = molecular target: T3, CCK2R (Rattus norvegicus, UniProt P30553); assay: Competitive cell-binding assay on AR42J cells with 125I-C3 as competitive ligand; conditions: AR42J cells, 125I-C3 competitive ligand, 37° C. 1 h; read-out: CCK2R/IC50
# T3 construct: host or cells: AR42J cells
# T3 sequence (P30553 1-452): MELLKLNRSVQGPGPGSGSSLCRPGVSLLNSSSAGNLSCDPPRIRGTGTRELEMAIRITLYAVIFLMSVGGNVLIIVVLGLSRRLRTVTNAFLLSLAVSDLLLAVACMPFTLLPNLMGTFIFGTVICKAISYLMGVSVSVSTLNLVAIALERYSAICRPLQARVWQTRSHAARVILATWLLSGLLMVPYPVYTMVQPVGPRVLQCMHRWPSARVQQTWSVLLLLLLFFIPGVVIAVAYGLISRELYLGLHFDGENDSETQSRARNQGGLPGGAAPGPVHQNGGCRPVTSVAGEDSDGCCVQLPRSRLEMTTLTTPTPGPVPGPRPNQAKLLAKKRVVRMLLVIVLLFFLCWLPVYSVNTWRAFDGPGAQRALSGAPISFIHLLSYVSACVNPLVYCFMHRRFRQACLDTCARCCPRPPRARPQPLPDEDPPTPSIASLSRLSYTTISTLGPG
# Outline: (§3)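 Rat AR42J cells (1~3×10^6 cells/mL) in RPMI-1640 with 0.25% BSA incubated with 125I-C1 or 125I-C3 (0.02 μCi/well) plus test compound (0-10000 nM) for 1 h at 37° C., n=3. Unbound ligand removed by filtration; bound radioactivity γ-counted; IC50 by nonlinear regression.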
# SSTR2 [5] = molecular target: T4, SSTR2 (Rattus norvegicus, UniProt P30680); assay: Competitive cell-binding assay on AR42J cells with 125I-C1 as competitive ligand; conditions: AR42J cells, 125I-C1 competitive ligand, 37° C. 1 h; read-out: SSTR2/IC50
# T4 construct: host or cells: AR42J cells
# T4 sequence (P30680 whole entry): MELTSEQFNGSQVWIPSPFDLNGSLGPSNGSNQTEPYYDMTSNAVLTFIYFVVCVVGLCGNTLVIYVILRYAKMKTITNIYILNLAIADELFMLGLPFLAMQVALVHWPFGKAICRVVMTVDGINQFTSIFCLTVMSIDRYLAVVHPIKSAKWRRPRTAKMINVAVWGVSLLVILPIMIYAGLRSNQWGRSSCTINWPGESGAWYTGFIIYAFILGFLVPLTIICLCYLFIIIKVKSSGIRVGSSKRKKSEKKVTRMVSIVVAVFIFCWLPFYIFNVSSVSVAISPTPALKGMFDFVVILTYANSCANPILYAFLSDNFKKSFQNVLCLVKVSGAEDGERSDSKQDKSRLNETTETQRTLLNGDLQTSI
# Outline: as §3
# in vivo = conditions: BALB/c nude, mouse, in vivo, iv, total radioactivity
# Outline: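 Compounds labelled with ^177Lu in 0.5 M NaOAc pH 4.5 at 95° C for 15 min, then used directly or diluted in PBS with 3 mg/mL ascorbate. BALB/c nude mice bore subcutaneous AR42J flank xenografts (0.05-0.50 g). Organs excised at 4, 24 and 72 h post-injection and γ-counted for % ID and % ID/g.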
# [6] = HEK 293T transfected, read-out: CCK2R IC50
IC50 (CCK2R [1]; [6]),IC50 (SSTR2 [2]),Compound,other results
19.4 nM,4.77 nM,"C[C@@H](O)[C@H](NC(=O)[C@@H]1CSSC[C@H](NC(=O)[C@@H](Cc2ccccc2)C(=O)C(=O)COCCOCCNC(=O)[C@H](CCCCCC(=O)COCCOCCNC(=O)CC[C@H](NC(=O)[C@H](CO)NC(=O)c2cccc(NC(=O)NN3CC(C4CCCCC4)c4ccccc4N(CC(=O)C(C)(C)C)C3=O)c2)C(=O)O)NC(=O)CN2CCN(CC(=O)O)CCN(CC(=O)O)CCN(CC(=O)O)CC2)C(=O)N[C@@H](Cc2ccc(O)cc2)C(=O)N[C@H](Cc2c[nH]c3ccccc23)C(=O)N[C@@H](CCCCN)C(=O)N[C@@H]([C@@H](C)O)C(=O)C1)C(=O)O (stereo partly drawn) [Compound I-77, DOTA- K(-OEG- gGlu- Ser- Z360)- OEG- f]CYwKTC]T- OH]",
126 nM,9.36 nM,"CC(=O)[C@H](Cc1ccc(O)cc1)NC(=O)[C@H](CSSC[C@H](NC(=O)[C@@H](NC(=O)[C@H](CCCCN)NC(=O)[C@H](N)Cc1c[nH]c2ccccc12)[C@@H](C)O)C(=O)N[C@H](C(C)=O)[C@@H](C)O)NC(=O)C(Cc1ccccc1)NC(=O)COCCOCCNC(=O)COCCOCCNC(=O)CC[C@H](NC(=O)C(CCC(=O)O)NC(=O)[C@H](CCCCNC(=O)c1cccc(NC(=O)N[C@@H]2CN(C3CCCCC3)c3ccccc3N(CC(=O)C(C)(C)C)C2=O)c1)NC(=O)CN1CCN(CC(=O)O)CCN(CC(=O)O)CCN(CC(=O)O)CC1)C(=O)O (stereo partly drawn) [Compound I-75, DOTA-K(Z360)-Glu-gGlu-OEG-OEG-f[CYwKTC]T-OH] (I: {DOTA}-K([3Abz-CO-X1])[ξE][γGlu][AEEA][AEEA][ξF]C-X2 / II: H-[dW]KTC-X3; disulfide I:7-II:4)",
24.2 nM,5.03 nM,"C[C@@H](O)[C@H](NC(=O)[C@@H]1CSSC[C@H](NC(=O)[C@@H](Cc2ccccc2)C(=O)C(=O)COCCOCCNC(=O)[C@H](CCCCCC(=O)COCCOCCNC(=O)COCCOCCNC(=O)C(Cc2ccc(C(=O)O)cc2)NC(=O)c2cccc(NC(=O)NN3CC(C4CCCCC4)c4ccccc4N(CC(=O)C(C)(C)C)C3=O)c2)NC(=O)CN2CCN(CC(=O)O)CCN(CC(=O)O)CCN(CC(=O)O)CC2)C(=O)N[C@@H](Cc2ccc(O)cc2)C(=O)N[C@H](Cc2c[nH]c3ccccc23)C(=O)N[C@@H](CCCCN)C(=O)N[C@@H]([C@@H](C)O)C(=O)C1)C(=O)O (stereo partly drawn) [Compound I-80, DOTA-K(-OEG-OEG-Cbp-Z360)-OEG-f[CYwKTC]T-OH]",

# Continued, compound first:
Compound,IC50 (CCK2R [1]; [6]),IC50 (SSTR2 [2]),other results
"C[C@@H](O)[C@H](NC(=O)[C@@H]1CSSC[C@H](NC(=O)[C@@H](Cc2ccccc2)NC(=O)COCCOCCNC(=O)[C@H](CCCCNC(=O)c2cccc(NC(=O)N[C@@H]3CN(C4CCCCC4)c4ccccc4N(CC(=O)C(C)(C)C)C3=O)c2)NC(=O)CN2CCN(CC(=O)O)CCN(CC(=O)O)CCN(CC(=O)O)CC2)C(=O)N[C@@H](Cc2ccc(O)cc2)C(=O)N[C@H](Cc2c[nH]c3ccccc23)C(=O)N[C@@H](CCCCN)C(=O)N[C@@H]([C@@H](C)O)C(=O)N1)C(=O)O [Compound I-37, DOTA-K(Z360)-OEG-f[CYwKTC]T-OH]",,,IC50 (CCK2R [3]): 10.7 nM; IC50 (CCK2R [4]): 4.2 nM; IC50 (SSTR2 [5]): 3.01 nM; tissue uptake at 24 h (in vivo; uptake Kidney): 7.79 %ID/g; tissue uptake at 24 h (in vivo; uptake Liver): 2.4 %ID/g; tissue uptake at 24 h (in vivo; uptake Pancreas): 0.68 %ID/g; tissue uptake at 24 h (in vivo; uptake Spleen): 0.2 %ID/g; tissue uptake at 24 h (in vivo; uptake Stomach): 2.58 %ID/g; tissue uptake at 24 h (in vivo; uptake Tumor): 23.1 %ID/g
"C[C@@H](O)[C@H](NC(=O)[C@@H]1CSSC[C@H](NC(=O)[C@@H](Cc2ccccc2)C(=O)C(=O)COCCOCCNC(=O)[C@H](CCCCCC(=O)COCCOCCNC(=O)COCCOCCCC(=O)[C@H](CCC(=O)O)NC(=O)c2cccc(NC(=O)NN3CCc4ccccc4N(CC(=O)C(C)(C)C)C3=O)c2)NC(=O)CN2CCN(CC(=O)O)CCN(CC(=O)O)CCN(CC(=O)O)CC2)C(=O)N[C@@H](Cc2ccc(O)cc2)C(=O)N[C@H](Cc2c[nH]c3ccccc23)C(=O)N[C@@H](CCCCN)C(=O)N[C@@H]([C@@H](C)O)C(=O)C1)C(=O)O [Compound I-76, DOTA-K(-OEG-OEG-Glu-Z360)-OEG-f[CYwKTC]T-OH]",11.2 nM,5.44 nM,
"C[C@@H](O)[C@H](NC(=O)[C@@H]1CSSC[C@H](NC(=O)[C@@H](Cc2ccccc2)C(=O)C(=O)COCCOCCNC(=O)[C@H](CCCCCC(=O)COCCOCCNC(=O)CC[C@H](NC(=O)[C@H](CN)NC(=O)c2cccc(NC(=O)NN3CC(C4CCCCC4)c4ccccc4N(CC(=O)C(C)(C)C)C3=O)c2)C(=O)O)NC(=O)CN2CCN(CC(=O)O)CCN(CC(=O)O)CCN(CC(=O)O)CC2)C(=O)N[C@@H](Cc2ccc(O)cc2)C(=O)N[C@H](Cc2c[nH]c3ccccc23)C(=O)N[C@@H](CCCCN)C(=O)N[C@@H]([C@@H](C)O)C(=O)C1)C(=O)O (stereo partly drawn) [Compound I-78, DOTA- K(-OEG- gGlu- Dap- Z360)- OEG- f[CYwKTC]T- OH]",30.5 nM,6.13 nM,
"C[C@@H](O)[C@H](NC(=O)[C@@H]1CSSC[C@H](NC(=O)[C@@H](Cc2ccccc2)C(=O)C(=O)COCCOCCNC(=O)[C@H](CCCCCC(=O)COCCOCCNC(=O)[C@H](Cc2c[nH]cn2)NC(=O)[C@H](CCC(=O)O)NC(=O)c2cccc(NC(=O)N[C@@H]3CN(C4CCCCC4)c4ccccc4N(CC(=O)C(C)(C)C)C3=O)c2)NC(=O)CN2CCN(CC(=O)O)CCN(CC(=O)O)CCN(CC(=O)O)CC2)C(=O)N[C@@H](Cc2ccc(O)cc2)C(=O)N[C@H](Cc2c[nH]c3ccccc23)C(=O)N[C@@H](CCCCN)C(=O)N[C@@H]([C@@H](C)O)C(=O)C1)C(=O)O [Compound I-79, DOTA- K(-OEG- His- Glu- Z360)- OEG- f[CYwKTC]T- OH]",,6.75 nM,"IC50 (CCK2R [1]; CCK2R IC50, HEK 293T transfected): 16.5 nM"
